Experimental findings from the supplement of paper PMC6411743 are described below.

A value given as a limit tells only on which side of the number the result lay.
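Wherever pEC50 of ATP-induced change in protein thermal stability (2D-TPP) is given: lysate dosed with Na-ATP at 0 0.005 0.05 0.5 and 2 mM.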

Sequence of UniProt Q4G176 (Q4G176 whole entry): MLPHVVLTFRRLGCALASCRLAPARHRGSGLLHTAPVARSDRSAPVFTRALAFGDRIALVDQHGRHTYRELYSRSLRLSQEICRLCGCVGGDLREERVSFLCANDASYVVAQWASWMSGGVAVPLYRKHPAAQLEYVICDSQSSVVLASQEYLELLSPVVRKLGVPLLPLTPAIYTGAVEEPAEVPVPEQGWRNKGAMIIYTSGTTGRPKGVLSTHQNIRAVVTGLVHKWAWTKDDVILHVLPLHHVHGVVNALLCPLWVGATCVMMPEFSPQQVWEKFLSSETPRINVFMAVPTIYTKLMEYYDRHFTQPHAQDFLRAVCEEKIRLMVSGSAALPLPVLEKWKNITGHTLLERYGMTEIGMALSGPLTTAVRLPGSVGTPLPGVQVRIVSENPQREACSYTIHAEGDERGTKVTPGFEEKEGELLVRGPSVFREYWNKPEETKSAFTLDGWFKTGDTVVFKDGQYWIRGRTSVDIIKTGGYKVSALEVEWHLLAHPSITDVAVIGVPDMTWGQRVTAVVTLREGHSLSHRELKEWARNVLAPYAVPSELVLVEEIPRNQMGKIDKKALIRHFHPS
Sequence of UniProt Q5ST30 (Q5ST30 whole entry): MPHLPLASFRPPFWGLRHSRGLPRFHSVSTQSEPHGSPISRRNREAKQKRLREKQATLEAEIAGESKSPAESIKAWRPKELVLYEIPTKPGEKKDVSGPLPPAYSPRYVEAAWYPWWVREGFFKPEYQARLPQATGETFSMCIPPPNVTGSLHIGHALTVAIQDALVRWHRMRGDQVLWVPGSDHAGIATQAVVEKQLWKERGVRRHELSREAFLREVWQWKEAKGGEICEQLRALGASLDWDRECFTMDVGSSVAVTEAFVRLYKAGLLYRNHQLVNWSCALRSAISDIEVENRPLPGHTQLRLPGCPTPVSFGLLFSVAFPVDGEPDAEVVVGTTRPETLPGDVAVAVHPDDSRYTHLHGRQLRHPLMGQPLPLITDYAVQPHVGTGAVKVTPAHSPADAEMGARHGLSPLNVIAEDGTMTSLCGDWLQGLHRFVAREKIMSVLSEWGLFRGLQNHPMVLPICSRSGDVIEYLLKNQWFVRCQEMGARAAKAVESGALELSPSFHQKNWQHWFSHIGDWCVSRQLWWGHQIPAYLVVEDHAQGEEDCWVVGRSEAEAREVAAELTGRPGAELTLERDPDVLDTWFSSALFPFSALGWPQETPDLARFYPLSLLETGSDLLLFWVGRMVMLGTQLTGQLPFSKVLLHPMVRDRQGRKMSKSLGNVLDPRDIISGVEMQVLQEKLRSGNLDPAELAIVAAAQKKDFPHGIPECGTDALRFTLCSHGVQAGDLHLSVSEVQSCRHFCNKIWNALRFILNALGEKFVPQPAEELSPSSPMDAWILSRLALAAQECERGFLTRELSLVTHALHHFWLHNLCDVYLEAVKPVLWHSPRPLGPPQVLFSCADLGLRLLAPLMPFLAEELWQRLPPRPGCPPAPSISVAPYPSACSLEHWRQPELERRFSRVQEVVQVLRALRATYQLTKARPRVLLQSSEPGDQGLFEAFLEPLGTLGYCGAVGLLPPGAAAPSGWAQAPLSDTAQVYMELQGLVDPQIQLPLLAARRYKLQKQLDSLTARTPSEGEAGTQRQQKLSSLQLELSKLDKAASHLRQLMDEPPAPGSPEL
Sequence of UniProt Q9Y2U5 (Q9Y2U5 whole entry): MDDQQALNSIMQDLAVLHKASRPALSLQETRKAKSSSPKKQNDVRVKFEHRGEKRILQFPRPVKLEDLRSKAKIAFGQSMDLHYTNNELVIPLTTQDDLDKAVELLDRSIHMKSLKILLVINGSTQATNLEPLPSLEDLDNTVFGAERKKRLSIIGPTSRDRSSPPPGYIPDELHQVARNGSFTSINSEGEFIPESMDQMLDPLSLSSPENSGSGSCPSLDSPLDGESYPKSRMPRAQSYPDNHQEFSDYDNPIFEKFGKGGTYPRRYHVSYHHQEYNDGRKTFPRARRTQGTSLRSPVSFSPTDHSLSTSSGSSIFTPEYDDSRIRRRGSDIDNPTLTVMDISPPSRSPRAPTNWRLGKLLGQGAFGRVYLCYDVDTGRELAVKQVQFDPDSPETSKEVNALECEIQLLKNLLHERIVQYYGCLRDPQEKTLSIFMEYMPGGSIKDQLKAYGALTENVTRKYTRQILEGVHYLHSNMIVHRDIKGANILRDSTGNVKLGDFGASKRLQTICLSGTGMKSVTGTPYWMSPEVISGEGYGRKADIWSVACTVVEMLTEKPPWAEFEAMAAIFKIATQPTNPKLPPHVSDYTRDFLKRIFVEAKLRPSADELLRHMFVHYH
Sequence of UniProt Q9Y2Z4 (Q9Y2Z4 whole entry): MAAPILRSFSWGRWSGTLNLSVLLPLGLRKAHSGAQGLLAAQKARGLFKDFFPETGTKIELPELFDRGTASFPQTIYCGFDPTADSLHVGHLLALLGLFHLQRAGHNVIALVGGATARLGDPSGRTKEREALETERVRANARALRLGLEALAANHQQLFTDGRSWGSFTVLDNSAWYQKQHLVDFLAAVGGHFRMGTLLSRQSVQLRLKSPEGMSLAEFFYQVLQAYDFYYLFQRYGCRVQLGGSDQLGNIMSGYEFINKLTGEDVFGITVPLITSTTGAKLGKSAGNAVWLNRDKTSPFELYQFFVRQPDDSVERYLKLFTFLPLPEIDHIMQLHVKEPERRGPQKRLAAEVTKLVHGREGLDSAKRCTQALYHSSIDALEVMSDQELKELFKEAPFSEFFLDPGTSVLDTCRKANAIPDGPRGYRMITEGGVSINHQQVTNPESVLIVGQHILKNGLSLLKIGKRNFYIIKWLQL
Sequence of UniProt Q86U90 (Q86U90 whole entry): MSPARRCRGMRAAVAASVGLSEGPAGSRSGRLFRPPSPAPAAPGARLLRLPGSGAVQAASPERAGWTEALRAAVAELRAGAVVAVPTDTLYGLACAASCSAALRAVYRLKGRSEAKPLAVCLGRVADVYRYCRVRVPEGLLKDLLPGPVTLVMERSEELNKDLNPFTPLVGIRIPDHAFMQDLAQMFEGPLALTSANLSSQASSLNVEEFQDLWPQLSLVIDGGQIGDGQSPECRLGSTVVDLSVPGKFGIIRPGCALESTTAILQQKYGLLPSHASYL
Sequence of UniProt Q147X3 (Q147X3 whole entry): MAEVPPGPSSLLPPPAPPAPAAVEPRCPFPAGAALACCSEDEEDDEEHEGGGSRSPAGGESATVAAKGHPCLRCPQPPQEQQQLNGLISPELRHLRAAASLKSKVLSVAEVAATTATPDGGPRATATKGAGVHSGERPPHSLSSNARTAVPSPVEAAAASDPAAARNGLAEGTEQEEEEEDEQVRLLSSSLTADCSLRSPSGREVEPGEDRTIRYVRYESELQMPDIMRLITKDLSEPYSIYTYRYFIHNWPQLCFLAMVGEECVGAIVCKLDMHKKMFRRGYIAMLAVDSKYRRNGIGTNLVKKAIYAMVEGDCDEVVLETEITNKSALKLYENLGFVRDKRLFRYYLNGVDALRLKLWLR
Sequence of UniProt Q86WB0 (Q86WB0 whole entry): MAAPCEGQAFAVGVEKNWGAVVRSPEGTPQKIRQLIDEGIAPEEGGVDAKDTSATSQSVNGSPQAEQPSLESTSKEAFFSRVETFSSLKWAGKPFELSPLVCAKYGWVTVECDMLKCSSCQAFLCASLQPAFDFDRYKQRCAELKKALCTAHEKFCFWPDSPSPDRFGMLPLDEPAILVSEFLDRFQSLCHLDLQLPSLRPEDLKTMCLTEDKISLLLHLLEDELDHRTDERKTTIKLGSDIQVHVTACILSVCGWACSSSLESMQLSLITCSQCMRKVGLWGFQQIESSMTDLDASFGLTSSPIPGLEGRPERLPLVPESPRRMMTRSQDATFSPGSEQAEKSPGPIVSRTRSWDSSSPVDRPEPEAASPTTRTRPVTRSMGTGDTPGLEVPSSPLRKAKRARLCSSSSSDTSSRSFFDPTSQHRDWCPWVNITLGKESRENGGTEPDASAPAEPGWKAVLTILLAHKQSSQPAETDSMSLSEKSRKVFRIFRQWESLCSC
Sequence of UniProt Q9UPN7 (Q9UPN7 whole entry): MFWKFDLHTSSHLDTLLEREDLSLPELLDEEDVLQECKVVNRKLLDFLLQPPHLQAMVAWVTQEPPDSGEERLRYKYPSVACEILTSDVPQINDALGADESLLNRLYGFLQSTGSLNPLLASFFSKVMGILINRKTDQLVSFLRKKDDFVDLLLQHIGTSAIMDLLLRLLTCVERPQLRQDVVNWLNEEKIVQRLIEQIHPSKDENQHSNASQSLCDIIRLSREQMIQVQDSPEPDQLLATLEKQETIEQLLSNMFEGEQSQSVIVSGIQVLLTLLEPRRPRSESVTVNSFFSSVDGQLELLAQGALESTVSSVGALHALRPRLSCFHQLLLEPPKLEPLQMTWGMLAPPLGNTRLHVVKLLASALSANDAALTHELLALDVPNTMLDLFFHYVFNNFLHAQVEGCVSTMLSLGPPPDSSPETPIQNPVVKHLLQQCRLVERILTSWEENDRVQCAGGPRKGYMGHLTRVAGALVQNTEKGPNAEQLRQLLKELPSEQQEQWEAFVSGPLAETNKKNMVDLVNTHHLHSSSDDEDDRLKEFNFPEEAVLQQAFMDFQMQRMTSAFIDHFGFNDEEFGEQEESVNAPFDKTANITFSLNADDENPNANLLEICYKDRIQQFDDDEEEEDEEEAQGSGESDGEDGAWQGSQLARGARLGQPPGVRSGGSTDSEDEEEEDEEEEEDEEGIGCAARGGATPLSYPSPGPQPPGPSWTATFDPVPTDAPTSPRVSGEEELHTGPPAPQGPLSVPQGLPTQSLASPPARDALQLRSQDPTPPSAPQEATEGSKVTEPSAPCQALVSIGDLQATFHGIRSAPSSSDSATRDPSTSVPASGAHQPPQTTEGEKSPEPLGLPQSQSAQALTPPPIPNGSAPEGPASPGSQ
Sequence of UniProt P40616 (P40616 whole entry): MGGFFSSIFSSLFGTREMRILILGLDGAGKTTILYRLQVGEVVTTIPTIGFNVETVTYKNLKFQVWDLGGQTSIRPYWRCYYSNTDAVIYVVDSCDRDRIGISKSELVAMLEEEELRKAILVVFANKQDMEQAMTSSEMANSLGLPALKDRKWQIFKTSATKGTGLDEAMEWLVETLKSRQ

Compound in the first experiment: Nc1nc2c(ncn2[C@@H]2O[C@H](COP(=O)(O)OP(=O)(O)OP(=O)(O)O)[C@@H](O)[C@H]2O)c(=O)[nH]1 [guanosine triphosphate]
Put plainly: pEC50 of GTP-induced change in protein thermal stability (2D-TPP). How it is done: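 2D thermal proteome profiling in Jurkat crude lysate. Lysate was treated 10 min at room temperature with Na-GTP (0, 0.001, 0.01, 0.1, 0.5 mM), heated to 12 temperatures (42-63.9 °C) for 3 min, and soluble protein was quantified by TMT10 LC-MS/MS. pEC50 is the median over replicates of dose-response fits (FDR-controlled hits).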
In general, pEC50 refers to −log10 of the EC50, conventionally taken in molar units. Regarding “ABCD3 (effect direction: stabilized) (UniProt P28288)”, the pEC50 turned out to be 3.69.
Take “ACSF3 (effect direction: destabilized) (UniProt Q4G176)”: the negative-log EC50 (pEC50) amounted to 3.56.
For the target “ALG1 (effect direction: stabilized) (UniProt Q9BT22)”, the pEC50 worked out at 3.56.
In the case of “ALG5 (effect direction: stabilized) (UniProt Q9Y673)”, the pEC50 was found to be 4.68.
Still for that read-out and setting: for “ARF3 (effect direction: stabilized) (UniProt P61204)” the value was 4.12.
With “ARF4 (effect direction: stabilized) (UniProt P18085)”, the pEC50 was found to be 4.57.
Same read-out and setting: for “ARL1 (effect direction: stabilized) (UniProt P40616)” the value was 3.92.
For “ARL3 (effect direction: stabilized) (UniProt P36405)”, the pEC50 is 4.36.
Take “ARL6 (effect direction: stabilized) (UniProt Q9H0F7)”: the pEC50 worked out at 4.1.
Regarding “ATAD3A (effect direction: stabilized) (UniProt Q9NVI7)”, the pEC50 was 4.22.
The same measure, in the same setting: for “ATL2 (effect direction: stabilized) (UniProt Q8NHH9)” the value was 3.88.
As for “CDC123 (effect direction: stabilized) (UniProt O75794)”, the pEC50 is below 3.3.
As to “COASY (effect direction: stabilized) (UniProt Q13057)”, the pEC50 stood at 4.03.
The same measure, in the same setting: then “CPSF6 (effect direction: stabilized) (UniProt Q16630)”, with below 3.3.
On the same count and under the same terms, then “CPT1A (effect direction: stabilized) (UniProt P50416)”, with 4.62; and “DDX1 (effect direction: stabilized) (UniProt Q92499)”, with 4.57.
Still for that read-out and setting: then “DHX30 (effect direction: destabilized) (UniProt Q7L2E3)”, with 3.92; and “DHX37 (effect direction: stabilized) (UniProt Q8IY37)”, with 3.8.

Compound in the next experiment: Nc1ncnc2c1ncn2[C@@H]1O[C@H](COP(=O)(O)OP(=O)(O)OP(=O)(O)O)[C@@H](O)[C@H]1O [adenosine triphosphate]
As to the kind of experiment: pEC50 of ATP-induced change in protein thermal stability (2D-TPP). Summed up:
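Each of three independent experiments used Jurkat crude lysate given five concentrations including vehicle (10 min, room temperature), followed by 3 min at one of 12 temperatures from 42 to 63.9 °C and NP40 with benzonase (60 min, 4 °C). TMT LC-MS/MS quantified soluble protein after ultracentrifugation, expressed as fold changes against vehicle at each temperature with median normalisation. For pEC50, dose-response curves were fitted per replicate over adjacent temperature pairs, and hits were called through permutation-based false discovery rate control.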
On to “UniProt Q9UKZ1 (effect direction: stabilized)”, for which the negative-log EC50 (pEC50) was found to be 3.4.
The same measure, in the same setting: then “UniProt Q9UPN6 (effect direction: stabilized)”, with 3.96; and “UniProt Q9UPN7 (effect direction: stabilized)”, with 2.97.
On to “UniProt Q9Y2H1 (effect direction: stabilized)”, for which the pEC50 worked out at 3.71.
On the same count and under the same terms, for “UniProt Q9Y2K2 (effect direction: stabilized)” the value was 3.43; for “UniProt Q9Y2U5 (effect direction: stabilized)”, 3.72.
As to “UniProt Q9Y6E0 (effect direction: stabilized)”, the pEC50 was determined as 3.56.
Regarding “UniProt Q9Y530 (effect direction: stabilized)”, the pEC50 was 2.97.
On the same count and under the same terms, for “UniProt Q63HN8 (effect direction: stabilized)” the value was 3; for “UniProt Q86U38 (effect direction: stabilized)”, below 2.7; for “UniProt Q86V81 (effect direction: destabilized)”, 3.07.
Same read-out and setting: for “UniProt Q96BW9 (effect direction: stabilized)” the value was 3.16.
Still for that read-out and setting: then “UniProt Q96C57 (effect direction: destabilized)”, with 4.35; and “UniProt Q96EK5 (effect direction: stabilized)”, with 2.96; and “UniProt Q96G23 (effect direction: stabilized)”, with 3.02.
Turning to “UniProt Q147X3 (effect direction: stabilized)”, the pEC50 stood at 2.88.
On the same count and under the same terms, for “UniProt Q00537 (effect direction: stabilized)” the value was 2.73; for “UniProt Q02750 (effect direction: stabilized)”, 4.06.
Take “UniProt Q05655 (effect direction: stabilized)”: the pEC50 came to 3.91.
Take “UniProt Q08623 (effect direction: destabilized)”: the pEC50 was below 2.7.
The same measure, in the same setting: for “UniProt Q12905 (effect direction: stabilized)” the value was 2.84; for “UniProt Q13043 (effect direction: stabilized)”, 3.38; for “UniProt Q13131 (effect direction: stabilized)”, 3.29.
Take “UniProt Q13188 (effect direction: stabilized)”: the pEC50 is 3.25.
As for “UniProt Q13416 (effect direction: stabilized)”, the pEC50 was 3.4.
Still for that read-out and setting: then “UniProt Q13885 (effect direction: stabilized)”, with 3.12.
As for “UniProt Q14004 (effect direction: stabilized)”, the pEC50 came to 3.59.
“UniProt Q14240 (effect direction: stabilized)”: the pEC50 was determined as 3.54.
The same measure, in the same setting: then “UniProt Q14289 (effect direction: stabilized)”, with 3.03; and “UniProt Q14562 (effect direction: stabilized)”, with 3.56; and “UniProt Q15046 (effect direction: stabilized)”, with 3.22.
Same read-out and setting: for “UniProt Q15149 (effect direction: stabilized)” the value was 2.72.
The same measure, in the same setting: then “UniProt Q15208 (effect direction: stabilized)”, with 3.24; and “UniProt Q15257 (effect direction: stabilized)”, with below 2.7; and “UniProt Q15418 (effect direction: stabilized)”, with 3.77.
As for “UniProt Q16181 (effect direction: stabilized)”, the pEC50 is below 2.7.
The same measure, in the same setting: for “UniProt Q92600 (effect direction: stabilized)” the value was 3.18.
As to “UniProt Q92615 (effect direction: stabilized)”, the pEC50 is 3.16.
Still for that read-out and setting: for “UniProt Q92841 (effect direction: stabilized)” the value was 3.79; for “UniProt Q92888 (effect direction: stabilized)”, below 2.7.
Regarding “UniProt Q92918 (effect direction: stabilized)”, the pEC50 turned out to be 3.83.
The same measure, in the same setting: then “VARS2 (effect direction: stabilized) (UniProt Q5ST30)”, with 3.22; and “VPS35 (effect direction: stabilized) (UniProt Q96QK1)”, with below 2.7.
With “VTN (effect direction: destabilized) (UniProt P04004)”, the pEC50 came to 3.24.
On the same count and under the same terms, then “WDR1 (effect direction: stabilized) (UniProt O75083)”, with below 2.7; and “WDR33 (effect direction: stabilized) (UniProt Q9C0J8)”, with below 2.7.
The same measure, in the same setting: then “WDR61 (effect direction: stabilized) (UniProt Q9GZS3)”, with 2.85; and “WRN (effect direction: stabilized) (UniProt Q14191)”, with 4.09; and “XPNPEP1 (effect direction: stabilized) (UniProt Q9NQW7)”, with 2.77.
The same measure, in the same setting: then “XPO1 (effect direction: stabilized) (UniProt O14980)”, with below 2.7; and “XRCC5 (effect direction: stabilized) (UniProt P13010)”, with below 2.7.
On to “XRCC6 (effect direction: stabilized) (UniProt P12956)”, for which the pEC50 is below 2.7.
Still for that read-out and setting: then “XYLB (effect direction: stabilized) (UniProt O75191)”, with 3.04.
Still for that read-out and setting: then “YARS2 (effect direction: stabilized) (UniProt Q9Y2Z4)”, with 3.97.
Turning to “YARS (effect direction: stabilized) (UniProt P54577)”, the negative-log EC50 (pEC50) was 3.25.
In the case of “YME1L1 (effect direction: stabilized) (UniProt Q96TA2)”, the pEC50 worked out at 3.54.
Still for that read-out and setting: for “YRDC (effect direction: stabilized) (UniProt Q86U90)” the value was 2.91.
As for “ZC3HC1 (effect direction: stabilized) (UniProt Q86WB0)”, the pEC50 was found to be 2.91.
As for “ZCCHC8 (effect direction: stabilized) (UniProt Q6NZY4)”, the pEC50 is below 2.7.
Turning to “ZCCHC9 (effect direction: destabilized) (UniProt Q8N567)”, the pEC50 is below 2.7.
“ZNF148 (effect direction: stabilized) (UniProt Q9UQR1)”: the pEC50 is 2.88.
On the same count and under the same terms, for “ZNF740 (effect direction: stabilized) (UniProt Q8NDX6)” the value was 3.16.
On the same count and under the same terms, for “ZRANB2 (effect direction: stabilized) (UniProt O95218)” the value was 2.84.
